# Where a name gives a salt, the structure may show the parent alone. Read-outs that look alike come from different tables or passages of the source.
# How the values were obtained:
# [1] = molecular target: PDE4B (Homo sapiens, UniProt Q07343); assay: In-vitro assay for PDE4 enzymes, real-time enzyme-coupled spectrophotometric assay, PDE4B Activity (Table 10); assay type: biochemical
# [2] = molecular target: PDE4 (Homo sapiens, UniProt Q08499); assay: In-vitro assay for PDE4 enzymes, real-time enzyme-coupled spectrophotometric assay (Table 9); assay type: biochemical
# PDE4, sequence (Q08499 whole entry): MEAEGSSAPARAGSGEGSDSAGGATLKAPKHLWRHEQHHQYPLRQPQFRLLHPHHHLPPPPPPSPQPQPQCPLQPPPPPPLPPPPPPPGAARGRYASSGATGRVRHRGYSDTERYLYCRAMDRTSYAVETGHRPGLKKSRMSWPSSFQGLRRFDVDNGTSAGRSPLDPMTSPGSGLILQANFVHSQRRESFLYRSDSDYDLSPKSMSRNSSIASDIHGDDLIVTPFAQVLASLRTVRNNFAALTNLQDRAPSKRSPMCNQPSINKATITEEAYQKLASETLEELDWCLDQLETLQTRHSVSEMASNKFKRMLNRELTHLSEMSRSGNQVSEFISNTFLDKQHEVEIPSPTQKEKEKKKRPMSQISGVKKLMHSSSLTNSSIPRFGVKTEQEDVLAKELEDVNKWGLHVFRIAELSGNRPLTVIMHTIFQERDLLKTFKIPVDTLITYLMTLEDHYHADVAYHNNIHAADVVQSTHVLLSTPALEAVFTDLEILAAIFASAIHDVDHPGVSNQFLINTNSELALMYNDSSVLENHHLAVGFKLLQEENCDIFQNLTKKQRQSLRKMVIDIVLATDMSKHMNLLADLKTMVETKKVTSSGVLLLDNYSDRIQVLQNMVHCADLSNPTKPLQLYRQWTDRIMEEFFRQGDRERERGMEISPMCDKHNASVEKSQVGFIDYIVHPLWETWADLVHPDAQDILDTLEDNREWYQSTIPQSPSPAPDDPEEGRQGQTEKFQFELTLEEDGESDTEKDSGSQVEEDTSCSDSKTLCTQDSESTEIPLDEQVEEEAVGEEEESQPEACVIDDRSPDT
# [3] = human PDE4B (hPDE4B), enzyme-coupled spectrophotometric assay, read-out: PDE4B Activity, hPDE4B
# [4] = human PDE4D, activity class, Table 9, read-out: hPDE4D
# PDE4B, sequence (Q07343 whole entry): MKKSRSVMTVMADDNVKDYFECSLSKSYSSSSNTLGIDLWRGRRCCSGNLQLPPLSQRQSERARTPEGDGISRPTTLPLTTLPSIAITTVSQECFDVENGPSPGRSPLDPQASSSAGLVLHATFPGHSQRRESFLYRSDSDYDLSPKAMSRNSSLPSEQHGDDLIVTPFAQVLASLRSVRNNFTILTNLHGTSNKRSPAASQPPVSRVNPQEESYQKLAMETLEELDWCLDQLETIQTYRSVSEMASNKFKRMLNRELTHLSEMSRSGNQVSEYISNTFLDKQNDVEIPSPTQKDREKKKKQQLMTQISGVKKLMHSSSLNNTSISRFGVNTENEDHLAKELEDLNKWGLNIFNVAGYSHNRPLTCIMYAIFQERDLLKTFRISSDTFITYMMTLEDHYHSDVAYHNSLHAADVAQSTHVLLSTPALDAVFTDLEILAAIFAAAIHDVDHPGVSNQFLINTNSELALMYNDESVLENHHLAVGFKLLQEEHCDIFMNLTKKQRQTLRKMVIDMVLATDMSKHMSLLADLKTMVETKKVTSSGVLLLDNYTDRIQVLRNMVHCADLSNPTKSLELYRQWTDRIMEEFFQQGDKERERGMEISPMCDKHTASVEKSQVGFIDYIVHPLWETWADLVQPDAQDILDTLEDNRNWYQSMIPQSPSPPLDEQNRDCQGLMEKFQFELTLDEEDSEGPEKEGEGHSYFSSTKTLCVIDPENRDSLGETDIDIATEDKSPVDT
structure (smiles),measurement,setting,value
"COc1ccc(C(O)c2ccnn2C)cc1-c1ccc2c(c1)OCO2 (centres unmarked) [P-073, (3-Benzo[1,3]dioxol-5-yl-4-methoxy-phenyl)-(2-methyl-2H-pyrazol-3-yl)-methanol]",IC50,[1]; [3],21 to 40 µM
same,IC50,[2]; [4],< 5 µM
"COc1ccc(CN2CCCCC2=O)cc1-c1cccc([N+](=O)[O-])c1 [P-188, 1-(6-Methoxy-3′-nitro-biphenyl-3-ylmethyl)-piperidin-2-one]",IC50,[1]; [3],< 5 µM
same,IC50,[2]; [4],< 5 µM
"COc1ccc(Oc2ccc(N)cc2)c(F)c1-c1cccc(C(C)=O)c1 [P-283, 4-(3′-Acetyl-2-fluoro-6-methoxy-biphenyl-3-yloxy)-phenyl-amine hydrochloride salt]",IC50,[1]; [3],< 5 µM
same,IC50,[2]; [4],< 5 µM
"COc1ccc(Cc2ccc(F)nc2)c(F)c1-c1cccc(Cl)c1 [P-456, 5-(3′Chloro-2-fluoro-6-methoxy-biphenyl-3-ylmethyl)-2-fluoro-pyridine]",IC50,[1]; [3],< 5 µM
same,IC50,[2]; [4],< 5 µM
"CNC(=O)NCc1ccc(Cc2ccc(OC(F)F)c(-c3cccc(Cl)c3)c2)cn1 [P-598, 1-[5-(3′-Chloro-6-difluoromethoxy-biphenyl-3-ylmethyl)-pyridin-2-ylmethyl]-3-methyl-urea hydrochloride]",IC50,[1]; [3],< 5 µM
same,IC50,[2]; [4],< 5 µM
COc1ccc(Cc2ccc(OCCN3CCOCC3)cc2)cc1-c1cccc([N+](=O)[O-])c1 [P-171],IC50,[1]; [3],< 5 µM
same,IC50,[2]; [4],< 5 µM
"NC(=O)Oc1ccc(Cc2ccc(=O)[nH]n2)cc1-c1cccc([N+](=O)[O-])c1 [P-020, Carbamic acid 3′-nitro-5-(6-oxo-1,6-dihydro-pyridazin-3-ylmethyl)-biphenyl-2-yl ester]",IC50,[1],21 to 40 µM
same,IC50,[2],5 to 20 µM
COc1ccc(CN2CCNC(=O)C2)c(F)c1-c1cccc(Cl)c1 [P-623],IC50,[1]; [3],5 to 20 µM
same,IC50,[2]; [4],< 5 µM
"COc1cc(F)c(Cc2ccc(F)cc2)cc1-c1cccc([N+](=O)[O-])c1 [P-094, 4-Fluoro-5-(4-fluoro-benzyl)-2-methoxy-3′-nitro-biphenyl]",IC50,[1]; [3],< 5 µM
same,IC50,[2]; [4],< 5 µM
COc1ccc(Cc2ccc(F)cc2)c(F)c1-c1cccc([N+](=O)[O-])c1 [P-050],IC50,[1]; [3],< 5 µM
same,IC50,[2]; [4],< 5 µM
COc1ccc(Cc2ccc(NC(C)=O)cc2)c(F)c1-c1cccc(Br)c1 [P-168],IC50,[1]; [3],< 5 µM
same,IC50,[2]; [4],< 5 µM
"COc1ccc(CN2CCCC2=O)cc1-c1cccc(Cl)c1 [P-218, 1-(3′-chloro-6-methoxy-biphenyl-3-ylmethyl)-pyrrolidin-2-one]",IC50,[1]; [3],< 5 µM
same,IC50,[2]; [4],< 5 µM
"COc1ccc(CN2C(=O)C(=O)c3ccccc32)cc1-c1cccc([N+](=O)[O-])c1 [P-041, 1-(6-Methoxy-3′-nitro-biphenyl-3-ylmethyl)-1H-indole-2,3-dione]",IC50,[1]; [3],< 5 µM
same,IC50,[2]; [4],5 to 20 µM
"CN1CC[C@@H](Oc2ccc(Cc3ccc(NC(N)=O)cc3)cc2-c2cccc(Cl)c2)C1 [P-565, {4-[3′-Chloro-6-((R)-1-methyl-pyrrolidin-3-yloxy)-biphenyl-3-ylmethyl]-phenyl}-urea]",IC50,[1]; [3],21 to 40 µM
same,IC50,[2]; [4],5 to 20 µM
"COc1ccc(Cc2c(C)nn(CC(N)=O)c2C)cc1-c1cccc([N+](=O)[O-])c1 [P-101, 2-[4-(6-Methoxy-3′-nitro-biphenyl-3-ylmethyl)-3,5-dimethyl-pyrazol-1-yl]-acetamide]",IC50,[1]; [3],< 5 µM
same,IC50,[2]; [4],< 5 µM
COc1ccc(Cc2ccc(NC(C)=O)cc2)c(F)c1-c1cccc(Cl)c1 [P-228],IC50,[1]; [3],< 5 µM
same,IC50,[2]; [4],< 5 µM
COc1ccc(Cc2ccc(CN)c(F)c2)c(F)c1-c1cccc(Cl)c1 [P-275],IC50,[1]; [3],5 to 20 µM
same,IC50,[2]; [4],< 5 µM
Nc1ccc(Cc2ccc(OC(F)F)c(-c3cccc(Br)c3)c2F)cc1 [P-317],IC50,[1]; [3],< 5 µM
same,IC50,[2]; [4],< 5 µM
O=[N+]([O-])c1cccc(-c2cc(Cc3ccc(Cl)nc3)ccc2O)c1 [P-500],IC50,[1]; [3],5 to 20 µM
same,IC50,[2]; [4],< 5 µM
"NC(=O)Nc1ccc(Cc2ccc(O)c(-c3cccc(Cl)c3)c2F)cc1 [P-468, [4-(3′-Chloro-2-fluoro-6-hydroxy-biphenyl-3-ylmethyl)-phenyl]-urea]",IC50,[1]; [3],< 5 µM
same,IC50,[2]; [4],< 5 µM
"COc1ccc(CN2C[C@@H](O)CC2=O)cc1-c1cccc([N+](=O)[O-])c1 [P-248, (S)-4-Hydroxy-1-(6-methoxy-3′-nitro-biphenyl-3-ylmethyl)-pyrrolidin-2-one]",IC50,[1]; [3],< 5 µM
same,IC50,[2]; [4],< 5 µM
COc1ccc(COc2ccc(N)cc2)c(F)c1-c1cccc(Cl)c1 [P-576],IC50,[1]; [3],< 5 µM
same,IC50,[2]; [4],< 5 µM
"COc1ccc(Cn2cccn2)cc1-c1ccc2c(c1)OCO2 [P-074, 1-(3-Benzo[1,3]dioxol-5-yl-4-methoxy-benzyl)-1H-pyrazole]",IC50,[1]; [3],5 to 20 µM
same,IC50,[2]; [4],< 5 µM
"COc1ccc(CNS(=O)(=O)c2ccc(NC(C)=O)cc2)c(F)c1-c1cccc(Cl)c1 [P-251, N-{4-[(3′-Chloro-2-fluoro-6-methoxy-biphenyl-3-ylmethyl)-sulfamoyl]-phenyl}-acetamide]",IC50,[1]; [3],< 5 µM
same,IC50,[2]; [4],< 5 µM
"COc1ccc(CN2CCCC2=O)cc1-c1ccc2c(c1)OCO2 [P-045, 1-(3-Benzo[1,3]dioxol-5-yl-4-methoxy-benzyl)-pyrrolidin-2-one]",IC50,[1]; [3],5 to 20 µM
same,IC50,[2]; [4],20 to 40 µM
"COc1ccc(Cc2c(C)noc2C)cc1-c1ccc2c(c1)OCO2 [P-062, 4-(3-Benzo[1,3]dioxol-5-yl-4-methoxy-benzyl)-3,5-dimethyl-isoxazole]",IC50,[1]; [3],< 5 µM
same,IC50,[2]; [4],< 5 µM
COc1ccc(Cc2ccc(CNS(C)(=O)=O)c(O)c2)c(F)c1-c1cccc(Cl)c1 [P-299],IC50,[1]; [3],5 to 20 µM
same,IC50,[2]; [4],< 5 µM
"CCOC(=O)Nc1ccc(Cc2ccc(OC)c(-c3cccc(C#N)c3)c2F)cn1 [P-398, [5-(3′-Cyano-2-fluoro-6-methoxy-biphenyl-3-ylmethyl)-pyridin-2-yl]-carbamic acid ethyl ester]",IC50,[1]; [3],< 5 µM
same,IC50,[2]; [4],< 5 µM
"COc1ccc(Cc2ccc(N3CCC3)nc2)c(F)c1-c1cccc(Cl)c1 [P-569, 2-Azetidin-1-yl-5-(3′-chloro-2-fluoro-6-methoxy-biphenyl-3-ylmethyl)-pyridine]",IC50,[1]; [3],< 5 µM
same,IC50,[2]; [4],< 5 µM
"COc1ccc(Cc2ccc(=O)[nH]n2)cc1-c1cccc([N+](=O)[O-])c1 [P-009, 6-(6-Methoxy-3′-nitro-biphenyl-3-ylmethyl)-2H-pyridazin-3-one]",IC50,[1]; [3],< 5 µM
same,IC50,[2]; [4],< 5 µM
"COc1ccc(Cc2ccc(OCCN(C)C)nc2)c(F)c1-c1cccc(Cl)c1 [P-588, {2-[5-(3′-Chloro-2-fluoro-6-methoxy-biphenyl-3-ylmethyl)-pyridin-2-yloxy]-ethyl}-dimethyl-amine]",IC50,[1]; [3],< 5 µM
same,IC50,[2]; [4],< 5 µM
"COc1ccc(Cc2ccc(N)cc2)c(F)c1-c1cccc(C(C)=O)c1 [P-261, 1-[3′-(4-Amino-benzyl)-2′-fluoro-6′-methoxy-biphenyl-3-yl]-ethanone; hydrochloride]",IC50,[1]; [3],< 5 µM
same,IC50,[2]; [4],< 5 µM
"CCOc1ccc(Cc2ccc(OC)c(-c3cccc(Cl)c3)c2F)s1 [P-310, 2-(3′-Chloro-2-fluoro-6-methoxy-biphenyl-3-ylmethyl)-5-ethoxythiophene]",IC50,[1]; [3],< 5 µM
same,IC50,[2]; [4],< 5 µM
COc1ccc(Cc2ccc(O)cc2)c(F)c1-c1cccc(Cl)c1 [P-216],IC50,[1]; [3],< 5 µM
same,IC50,[2]; [4],< 5 µM
COc1ccc(Cc2ccc(OCCN3CCCCC3)cc2)cc1-c1cccc([N+](=O)[O-])c1 [P-166],IC50,[1]; [3],< 5 µM
same,IC50,[2]; [4],< 5 µM
"CN(CC(N)=O)c1ccc(Cc2ccc(OC(F)F)c(-c3cccc(Cl)c3)c2)cn1 [P-621, 2-{[5-(3′-Chloro-6-difluoromethoxy-biphenyl-3-ylmethyl)-pyridin-2-yl]-methyl-amino}-acetamide]",IC50,[1]; [3],< 5 µM
same,IC50,[2]; [4],< 5 µM
COc1ccc(Cc2ccc(NS(C)(=O)=O)cc2)c(F)c1-c1cccc(Br)c1 [P-200],IC50,[1]; [3],< 5 µM
same,IC50,[2]; [4],< 5 µM
"CCNC(=O)N1CCN(c2cc(Cc3ccc(OC)c(-c4cccc(Cl)c4)c3F)ccn2)CC1 [P-519, 4-[4-(3′-Chloro-2-fluoro-6-methoxy-biphenyl-3-ylmethyl)-pyridin-2-yl]-piperazine-1-carboxylic acid ethylamide]",IC50,[1]; [3],< 5 µM
same,IC50,[2]; [4],< 5 µM
COc1ccc(Cc2cccc(O)c2)c(F)c1-c1cccc(Cl)c1 [P-217],IC50,[1]; [3],< 5 µM
same,IC50,[2]; [4],< 5 µM
COc1ccc(Cc2ccc(CNC(C)=O)c(F)c2)c(F)c1-c1cccc(C(C)=O)c1 [P-329],IC50,[1]; [3],< 5 µM
same,IC50,[2]; [4],< 5 µM
"COc1ccc(Cn2nnc3ccccc32)cc1-c1cccc([N+](=O)[O-])c1 [P-007, 1-(6-Methoxy-3′-nitro-biphenyl-3-ylmethyl)-1H-benzotriazole]",IC50,[1]; [3],5 to 20 µM
same,IC50,[2]; [4],< 5 µM
COc1ccc(Cc2cccnc2Cl)c(O)c1-c1cccc(N)c1 [P-182],IC50,[1]; [3],21 to 40 µM
same,IC50,[2]; [4],5 to 20 µM
"CCNC(=O)Nc1ncc(Cc2ccc(OC)c(-c3cccc(C#N)c3)c2F)cn1 [P-399, 1-[5-(3′-Cyano-2-fluoro-6-methoxy-biphenyl-3-ylmethyl)-pyrimidin-2-yl]-3-ethyl-urea]",IC50,[1]; [3],< 5 µM
same,IC50,[2]; [4],< 5 µM
"COc1ccc(Cc2cccc(CO)c2)cc1-c1cccc([N+](=O)[O-])c1 [P-103, [3-(6-Methoxy-3′-nitro-biphenyl-3-ylmethyl)-phenyl]-methanol]",IC50,[1]; [3],< 5 µM
same,IC50,[2]; [4],< 5 µM
"COc1ccc(Cn2cnnc2)cc1-c1cccc([N+](=O)[O-])c1 [P-066, 4-(6-Methoxy-3′-nitro-biphenyl-3-ylmethyl)-4H-[1,2,4]triazole]",IC50,[1]; [3],< 5 µM
same,IC50,[2]; [4],< 5 µM
COc1ccc(Cc2ccc(S(N)(=O)=O)cc2)c(F)c1-c1cccc(C(C)=O)c1 [P-304],IC50,[1]; [3],< 5 µM
same,IC50,[2]; [4],< 5 µM
"CCNC(=O)Nc1ccc(Cc2ccc(OC)c(-c3cccc(C#N)c3)c2F)cn1 [P-405, 1-[5-(3′-Cyano-2-fluoro-6-methoxy-biphenyl-3-ylmethyl)-pyridin-2-yl]-3-ethyl-urea hydrochloride salt]",IC50,[1]; [3],< 5 µM
same,IC50,[2]; [4],< 5 µM
"COc1ccc(CN2C(=O)CCCC2=O)cc1-c1cccc([N+](=O)[O-])c1 [P-040, 1-(6-Methoxy-3′-nitro-biphenyl-3-ylmethyl)-piperidine-2,6-dione]",IC50,[1]; [3],5 to 20 µM
same,IC50,[2]; [4],5 to 20 µM
COc1ccc(Cc2ccncc2)cc1-c1ccc2nonc2c1 [P-011],IC50,[1]; [3],< 5 µM
same,IC50,[2]; [4],< 5 µM

# Reference: patent publication US8791267B2, “Biaryl PDE4 inhibitors for treating inflammatory, cardiovascular and CNS disorders” (Decode Genetics EHF, priority 2007, dated 2014)
